Experimental data as given in DBAASP.
In brackets after ≈: the same amount, converted by molar mass. Each block holds one compound with its values, some of them ahead of it.

Tests used:
Assay in all cases: ≥ marks a high value that may be exact or a test limit, other limits are often not marked, values filed in µg/mL are converted to µM
[1] = system: Staphylococcus epidermidis RP62A/1
[2] = system: Staphylococcus epidermidis RP62A
[3] = system: Staphylococcus aureus ATCC 25923
[4] = system: Escherichia coli ATCC 25726
[5] = system: Stenotrophomonas maltophilia B32/4
[6] = system: Candida albicans ATCC 90028
[7] = system: Klebsiella pneumoniae ATCC 700603
[8] = system: Pseudomonas aeruginosa ATCC 27853
[9] = system: Acinetobacter baumannii NM8
Neisseria meningitidis = system: Neisseria meningitidis
Salmonella typhimurium = system: Salmonella typhimurium
Escherichia coli = system: Escherichia coli
Staphylococcus aureus = system: Staphylococcus aureus
Pseudomonas aeruginosa = system: Pseudomonas aeruginosa
Staphylococcus aureus MR = system: Staphylococcus aureus MR
Yersinia pestis = system: Yersinia pestis
[10] = system: Mycobacterium tuberculosis
[11] = system: Psychrobacter immobilis NCIMB 308
[12] = system: Yersinia ruckeri NCIMB 2196
[13] = system: Vibrio anguillarum NCIMB 2129
[14] = system: Planococcus citreus NCIMB 1493
[15] = system: Staphylococcus aureus ATCC 9144
[16] = system: Vibrio anguillarum NCIMB 2133
[17] = system: Micrococcus luteus ATCC 4698
[18] = system: Vibrio anguillarum VI-F258-3
Yersinia ruckeri VI-3629 = system: Yersinia ruckeri VI-3629
[19] = system: Escherichia coli ATCC 25922
[20] = system: Aeromonas salmonicida NCIMB 1102
[21] = system: Corynebacterium glutamicum ATCC 13032
[22] = system: Staphylococcus aureus CIB 85462
[23] = system: Escherichia coli CIB 84492
Escherichia coli 363 = system: Escherichia coli 363
Bacillus subtilis = system: Bacillus subtilis
Vibrio anguillarum = system: Vibrio anguillarum
[24] = system: Staphylococcus haemolyticus
Aerococcus viridans = system: Aerococcus viridans
Micrococcus luteus = system: Micrococcus luteus
Vibrio harveyi = system: Vibrio harveyi
Aeromonas hydrophila = system: Aeromonas hydrophila
[25] = system: Xanthomonas axonopodis pv. citri
[26] = system: Escherichia coli ATCC 8739
[27] = system: Staphylococcus aureus ATCC 29313

SMILES: CC[C@H](C)[C@H](NC(=O)CNC(=O)CNC(=O)[C@H](CCSC)NC(=O)[C@H](CC(C)C)NC(=O)[C@H](CCC(=O)O)NC(=O)[C@H](CCCN=C(N)N)NC(=O)CNC(=O)[C@H](CCCN=C(N)N)NC(=O)[C@H](CCSC)NC(=O)CNC(=O)[C@@H](NC(=O)[C@H](CCCN=C(N)N)NC(=O)[C@H](CC(C)C)NC(=O)[C@@H](N)CS)[C@@H](C)CC)C(=O)NCC(=O)N[C@@H](CCCCN)C(=O)N[C@H](C(=O)N[C@@H](CCSC)C(=O)O)[C@@H](C)O [CLRIGMRGRELMGGIGKTM]
- MIC (Neisseria meningitidis): ≥ 144 µM
- MIC (Salmonella typhimurium): ≥ 144 µM
- MIC (Escherichia coli): 144 µM (≈ 300 µg/mL)
- MIC (Staphylococcus aureus): 144 µM (≈ 300 µg/mL)
- MIC (Pseudomonas aeruginosa): 144 µM (≈ 300 µg/mL)
- MIC (Staphylococcus aureus MR): ≥ 144 µM
- MIC (Yersinia pestis): ≥ 144 µM
- MIC [10]: ≥ 144 µM

SMILES: CC[C@H](C)[C@H](NC(=O)[C@H](CC(C)C)NC(=O)CNC(=O)[C@@H](NC(=O)[C@@H](NC(=O)[C@H](Cc1cnc[nH]1)NC(=O)[C@H](Cc1cnc[nH]1)NC(=O)[C@H](CC(C)C)NC(=O)[C@@H](N)Cc1ccccc1)[C@@H](C)CC)C(C)C)C(=O)N[C@@H](Cc1cnc[nH]1)C(=O)N[C@@H](Cc1cnc[nH]1)C(=O)NCC(=O)N[C@@H](CCCCN)C(=O)N[C@@H](CC(C)C)C(=O)N[C@@H](CC(=O)O)C(=O)N[C@@H](CCSC)C(=O)N[C@@H](Cc1ccc(O)cc1)C(=O)N[C@@H](CCCN=C(N)N)C(=O)N[C@@H](CO)C(=O)N[C@@H](CC(N)=O)C(=O)N[C@@H](CC(N)=O)C(=O)O [FLHHIVGLIHHGKLDMYRSNN]
- MIC [11]: 10 µM (≈ 25 µg/mL)
- MIC [12]: 10 µM (≈ 25 µg/mL)
- MIC [13]: 10 µM (≈ 25 µg/mL)
- MIC [14]: 10 µM (≈ 25 µg/mL)
- MIC [15]: 10 µM (≈ 25 µg/mL)
- MIC [16]: 10 µM (≈ 25 µg/mL)
- MIC [17]: 10 µM (≈ 25 µg/mL)
- MIC [18]: 10 µM (≈ 25 µg/mL)
- MIC (Yersinia ruckeri VI-3629): 10 µM (≈ 25 µg/mL)
- MIC [19]: > 10 µM
- MIC [20]: 10 µM (≈ 25 µg/mL)
- MIC [21]: 10 µM (≈ 25 µg/mL)

SMILES: CC(C)C[C@H](NC(=O)[C@H](C)NC(=O)[C@@H](NC(=O)[C@H](CCCCN)NC(=O)CNC(=O)[C@@H](NC(=O)[C@@H](NC(=O)[C@H](CCCCN)NC(=O)CNC(=O)[C@H](CC(C)C)NC(=O)[C@H](CO)NC(=O)[C@H](CCCCN)NC(=O)[C@H](CC(C)C)NC(=O)[C@H](CCCCN)NC(=O)[C@H](CC(=O)O)NC(=O)[C@H](CC(C)C)NC(=O)[C@H](Cc1c[nH]c2ccccc12)NC(=O)[C@H](C)N)C(C)C)C(C)C)C(C)C)C(=O)NCC(=O)N[C@H](C(=O)N[C@@H](C)C(=O)N[C@@H](CCC(N)=O)C(=O)N[C@@H](CC(N)=O)C(=O)N[C@@H](Cc1ccc(O)cc1)C(=O)N[C@@H](CC(C)C)C(=O)N[C@@H](CC(N)=O)C(=O)N1CCC[C@H]1C(=O)N[C@@H](CCC(N)=O)C(=O)N[C@@H](CCC(N)=O)C(=O)O)C(C)C [AWLDKLKSLGKVVGKVALGVAQNYLNPQQ]
- MIC [3]: 1.27 µM (≈ 4 µg/mL)
- MIC [25]: 2 µM (≈ 6.28 µg/mL)
- MIC [26]: 1.27 µM (≈ 4 µg/mL)
- MIC [19]: 5 µM (≈ 15.7 µg/mL)
- MIC [8]: 10 µM (≈ 31.4 µg/mL)
- MIC [27]: 20 µM (≈ 62.8 µg/mL)

More lines, main results first:

- MIC [1]: 8 µM (≈ 12.8 µg/mL)
- MIC [2]: 16 µM (≈ 25.6 µg/mL)
- MIC [3]: 32 µM (≈ 51.1 µg/mL)
- MIC [4]: ≥ 256 µM
- MIC [5]: ≥ 128 µM
- MIC [6]: ≥ 128 µM
- MIC [7]: > 128 µM
- MIC [8]: > 128 µM
- MIC [9]: ≥ 128 µM
SMILES: CC[C@H](C)[C@H](N)C(=O)N[C@@H](CC(C)C)C(=O)NCC(=O)N[C@@H](CCCCN)C(=O)N[C@@H](CC(C)C)C(=O)N[C@@H](CC(C)C)C(=O)N[C@@H](CO)C(=O)N[C@H](C(=O)N[C@@H](C)C(=O)N[C@@H](C)C(=O)NCC(=O)N[C@@H](CC(C)C)C(=O)N[C@@H](CC(C)C)C(=O)N[C@@H](CO)C(=O)N[C@@H](CCCCN)C(=O)N[C@@H](CC(C)C)C(N)=O)[C@@H](C)O [ILGKLLSTAAGLLSKL]

- MIC [22]: 3.07 µM (≈ 7.99 µg/mL)
- MIC [3]: 6.15 µM (≈ 16 µg/mL)
- MIC [19]: 49.2 µM (≈ 128 µg/mL)
- MIC [23]: 24.6 µM (≈ 64 µg/mL)
SMILES: CC[C@H](C)[C@@H]1NC(=O)[C@H](CC(C)C)NC(=O)[C@@H](NC(=O)[C@H](Cc2ccccc2)NC(=O)[C@@H](NC(=O)[C@@H](NC(=O)[C@@H]2CCCN2C(=O)[C@@H](NC(=O)[C@@H](NC(=O)[C@H](CCCCN)NC(=O)[C@H](C)NC(=O)[C@H](C)NC(=O)[C@@H](NC(=O)[C@H](CCCN=C(N)N)NC(=O)[C@H](CC(C)C)NC(=O)[C@@H](NC(=O)[C@H](C)NC(=O)[C@@H]2CCCN2C(=O)[C@H](CC(C)C)NC(=O)[C@@H](N)Cc2ccccc2)C(C)C)C(C)C)C(C)C)C(C)C)[C@@H](C)O)C(C)C)CSSC[C@@H](C(=O)O)NC(=O)[C@H](CCCCN)NC(=O)[C@H](CCCCN)NC(=O)[C@H](CO)NC1=O [FLPAVLRVAAKVVPTVFCLISKKC]

- MIC (Escherichia coli 363): ≥ 50 µM
- MIC (Bacillus subtilis): ≥ 50 µM
- MIC (Vibrio anguillarum): ≥ 50 µM
- MIC (Aerococcus viridans): 12.5 µM (≈ 37.4 µg/mL)
- MIC (Micrococcus luteus): 25 µM (≈ 74.8 µg/mL)
- MIC (Vibrio harveyi): ≥ 50 µM
- MIC (Aeromonas hydrophila): ≥ 50 µM
SMILES: CC[C@H](C)[C@H](N)C(=O)N1CCC[C@H]1C(=O)N[C@@H](C)C(=O)N[C@@H](CCSC)C(=O)N[C@@H](CCC(=O)O)C(=O)N1CCC[C@H]1C(=O)N[C@@H](C)C(=O)N[C@@H](C)C(=O)N[C@@H](CCCN=C(N)N)C(=O)N[C@H](C(=O)N[C@@H](CCCCN)C(=O)N[C@@H](CCCN=C(N)N)C(=O)N[C@@H](CO)C(=O)N1CCC[C@H]1C(=O)NCC(=O)N[C@@H](Cc1ccc(O)cc1)C(=O)NCC(=O)NCC(=O)N[C@H]1CSSC[C@@H](C(=O)NCC(=O)NCC(=O)N[C@@H](Cc2ccc(O)cc2)C(=O)NCC(=O)O)NC(=O)[C@H](C)NC(=O)[C@H](Cc2c[nH]c3ccccc23)NC(=O)[C@H](CCCN=C(N)N)NC(=O)[C@@H]2CCCN2C(=O)[C@H](CO)NC1=O)C(C)C [IPAMEPAARVKRSPGYGGCSPRWACGGYG]
- MIC [24]: ≥ 50 µM
